Where two headings read alike, the source gives them in different places.
Columns and labels:
[1] = Pharmacokinetics in 300/400 mg BID study; assay type: in vivo, human; details: for concentration at 12 h: read-out: C12 h
Method: The primary endpoint was change in 24 h average SBP and DBP from baseline to day 36 as determined by ABPM. Secondary outcome measures included: change in 24 h average SBP and DBP from baseline to days 4 and 15; change in average SBP and DBP within a 12 h dosing interval from baseline to days 14 and 35 (inpatient); change in 24 h average ambulatory heart rate from baseline to days 4, 15 and 36; proportion of participants whose 24 h SBP and DBP increased by <5, 5-9, 10-14, 15-19, and >20 mm Hg compared with baseline; PK parameters of BIIB074 following a single oral dose in healthy female participants, and following repeated oral doses given twice daily to healthy male and female participants; PK/pharmacodynamic (PD) analyses to examine the correlation between ABP and plasma levels and/or metrics of the systemic exposure of BIIB074. ABPM data were analyzed using a repeated measures mixed effects model, whereby fixed effects were treatment, day, treatment*day, period, average baseline*day, period adjusted baseline*day, sex and treatment*sex; random effect was subject; and repeated effect was day. All summary statistics were carried out using SAS 8.02 for UNIX running under the Harmonisation of Analysis and Reporting Program (HARP) environment. PK parameters were calculated by standard non-compartmental analysis according to working practices and using Wn Nonlin Pro v. 5.2. The safety population was the primary analysis population for this study and included all participants who received one or more doses of BIIB074. The PK population was defined as participants in the safety population for whom a PK sample was obtained and analysed.

[2] = tested on: dogs; details: dog, in vivo
Source text: (§1) The 36 day treatment duration in this study was rationally designed to determine whether tolerance developed for any potential effects of BIIB074 on SBP or DBP, since BP effects resolved by day 28 in the earlier phase 1 trial. The data from this study show a slight trend towards a decrease in the BP difference between BIIB074 and placebo between day 4 and day 35, although differences were minimal at all time points. […] Thus, the body of evidence, encompassing clinical and preclinical studies, supports safety and minimal effects of BIIB074 on BP/cardiovascular parameters.

[3] = 150 mg TID dosage study, pharmacokinetics; details: both sexes, human, in vivo
Method: A clinical trial was conducted to evaluate certain pharmacokinetic parameters of the compound of Example 1 when dosed at 150 mg TID for seven days. 15 young males and females aged 18 to 45 were scheduled to received ether the compound of Example 1 at 150 mg TID during a first period of 8 days followed by placebo during a second period of 8 days; or placebo during the first period and the compound of Example 1 during the second period.

[4] = PK modelling of plasma exposure of Example 1 for different dosing regimens; design: species or system human; details: modelled
Source text: In Table 1, free plasma CMax exposures of Example 1 obtained from modelling different dosing regimens were used to quantify the resulting amount of block at the primary target hNaV1.7. […] Doses of marketed drugs used in trigeminal neuralgia were compared using the same paradigm.

[5] = tested on: rats; assay: Preclinical safety pharmacology, tyramine-induced hypertension; assay type: in vivo, rat; details: data not shown
Source text: as §1

[6] = female, human, plasma, oral, 300 mg, Repeat dose Day 1, Female 300 mg bid (N = 21)
[7] = female, human, plasma, oral, 300 mg, Repeat dose Day 14, Female 300 mg bid (N = 21)
[8] = female, human, plasma, oral, 300 mg, Repeat dose Day 35, Female 300 mg bid (N = 21)
[9] = female, human, plasma, oral, 400 mg, Single Dose (400 mg), Female (N = 22)
[10] = male, human, plasma, oral, 400 mg, Repeat dose Day 1, Male 400 mg bid (N = 33)
[11] = male, human, plasma, oral, 400 mg, Repeat dose Day 14, Male 400 mg bid (N = 33)
[12] = male, human, plasma, oral, 400 mg, Repeat dose Day 35, Male 400 mg bid (N = 33)

Cl.NC(=O)[C@@H]1CC[C@H](c2ccc(OCc3ccccc3F)cc2)N1 [Example 1, (5R)-5-(4-{[(2-Fluorophenyl)methyl]oxy}phenyl)-L-prolinamide hydrochloride]
t1/2 ([1]; Single Dose (400 mg), Female (N = 22), listed as BIIB074, hydrochloride): 8.91 h
AUC(0-t) ([1]; female, human, plasma, oral, 300 mg bid, Repeat dose Day 14, Female 300 mg bid (N = 21), read-out: AUC(0-12)): 29.2 µg·h/mL
Cmax [1, 6]: 2.57 µg/mL
AUC(0-t) ([1]; female, human, plasma, oral, 300 mg, Repeat dose Day 1, Female 300 mg bid (N = 21), read-out: AUC(0-12)): 16.2 µg·h/mL
AUC(0-t) ([1]; female, human, plasma, oral, 300 mg, Repeat dose Day 1, Female 300 mg bid (N = 21), read-out: AUC(0-24)): 32.4 µg·h/mL
concentration at 12 h [1, 6]: 0.746 µg/mL
Cmax [1, 7]: 4.03 µg/mL
AUC(0-t) ([1]; female, human, plasma, oral, 300 mg, Repeat dose Day 14, Female 300 mg bid (N = 21), read-out: AUC(0-24)): 58.3 µg·h/mL
concentration at 12 h [1, 7]: 1.44 µg/mL
Cmax [1, 8]: 3.99 µg/mL
Tmax [1, 8]: 1 h
AUC(0-t) ([1]; female, human, plasma, oral, 300 mg, Repeat dose Day 35, Female 300 mg bid (N = 21), read-out: AUC(0-12)): 27.4 µg·h/mL
AUC(0-t) ([1]; female, human, plasma, oral, 300 mg, Repeat dose Day 35, Female 300 mg bid (N = 21), read-out: AUC(0-24)): 54.8 µg·h/mL
concentration at 12 h [1, 8]: 1.31 µg/mL
Cmax [1, 9]: 3.78 µg/mL
Tmax [1, 9]: ≤ 1.5 h
half-life [1, 9]: ~9 h
AUC(0-t) ([1]; female, human, plasma, oral, 400 mg, Single Dose (400 mg), Female (N = 22), read-out: AUC(0-12)): 24.2 µg·h/mL
AUC(0-t) ([1]; female, human, plasma, oral, 400 mg, Single Dose (400 mg), Female (N = 22), read-out: AUC(0-24)): 48.3 µg·h/mL
AUC(0-t) ([1]; female, human, plasma, oral, 400 mg, Single Dose (400 mg), Female (N = 22), read-out: AUC(0-t)): 32.8 µg·h/mL
AUC(0-inf) ([1]; human, plasma, oral, Single Dose (400 mg), Female (N = 22)): 38.7 µg·h/mL
between-subject variability (CV %) of AUC(0-24) ([1]; in vivo): 20-25%
AUC(0-t) ([1]; male, human, plasma, oral, 400 mg bid, Repeat dose Day 1, Male 400 mg bid (N = 33), read-out: AUC(0-12)): 19.1 µg·h/mL
Cmax [1, 10]: 3.21 µg/mL
Tmax [1, 10]: 1 h
AUC(0-t) ([1]; male, human, plasma, oral, 400 mg, Repeat dose Day 1, Male 400 mg bid (N = 33), read-out: AUC(0-24)): 38.3 µg·h/mL
concentration at 12 h [1, 10]: 0.889 µg/mL
Cmax [1, 11]: 4.79 µg/mL
Tmax [1, 11]: 1 h
AUC(0-t) ([1]; male, human, plasma, oral, 400 mg, Repeat dose Day 14, Male 400 mg bid (N = 33), read-out: AUC(0-12)): 32.1 µg·h/mL
AUC(0-t) ([1]; male, human, plasma, oral, 400 mg, Repeat dose Day 14, Male 400 mg bid (N = 33), read-out: AUC(0-24)): 64.1 µg·h/mL
concentration at 12 h [1, 11]: 1.59 µg/mL
Cmax [1, 12]: 4.41 µg/mL
Tmax [1, 12]: 1 h
AUC(0-t) ([1]; male, human, plasma, oral, 400 mg, Repeat dose Day 35, Male 400 mg bid (N = 33), read-out: AUC(0-12)): 30.1 µg·h/mL
AUC(0-t) ([1]; male, human, plasma, oral, 400 mg, Repeat dose Day 35, Male 400 mg bid (N = 33), read-out: AUC(0-24)): 60.1 µg·h/mL
concentration at 12 h [1, 12]: 1.46 µg/mL
effects on cardiovascular parameters [2]: no effects of BIIB074 on cardiovascular parameters in dogs
Cmax ([3]; day 8): 2.71 µg/mL
AUC(0-t) ([3]; day 8, read-out: AUC0-8): 15.3 µg·h/mL
CTrough exposure at steady state ([4]; 150 mg TID): 1099 ng/mL
Cmax Free plasma ([4]; 150 mg tid): 0.21 µM
Cmax total plasma ([4]; 150 mg tid): (2.06 μg/ml total plasma)
Cmax Free plasma ([4]; 200 mg bid): 0.29 µM
Cmax total plasma ([4]; 200 mg bid): (2.8 μg/ml total plasma)
CTrough exposure at steady state ([4]; 250 mg TID): 1750 ng/mL
Cmax Free plasma ([4]; 250 mg tid): 0.36 µM
Cmax total plasma ([4]; 250 mg tid): (3.43 μg/ml total plasma)
Cmax Free plasma ([4]; 350 mg bid): 0.37 µM
Cmax total plasma ([4]; 350 mg bid): (3.74 μg/ml total plasma)
effects on tyramine-induced hypertension [5]: no effects on tyramine-induced hypertension in rats
